The results in this text go back to patent US20140162942A1, “INHIBITION OF CYP3A DRUG METABOLISM” (priority 2010, published 2014).

Entries after “also recorded” stand apart in the source; their conditions may differ. Where two headings read alike, the source gives them in different places.

One data set addresses T1, CYP2C9 (Homo sapiens, UniProt P11712).
T1 construct: Pooled human liver microsomes (from sixteen individuals) were used as the source of enzymes; tissue XenoTech, LLC; host or cells: human liver microsomes, pool of sixteen donors
Description: CYP2C9 inhibition, diclofenac 4′-hydroxylation in human liver microsomes. In kind it is in vitro ADME. The settings on record: for Potential for Time-Dep. Inhibition: comparison with and without 30-minute pre-incubation. As for the experimental part:
(§1) The basis for many of the following incubation conditions is described in the following references: Madan, et al., 2002,^(1) Huang, 2004,^(3) Ogilvie, et al., 2006,^(6) Pearce, et al., 1996,^(7) Tucker, et al., 2001,^(4) and Walsky and Obach, 2004.^(5) In general, incubations were conducted at approximately 37° C. in 400-μL incubation mixtures (target pH 7.4) containing high purity water, potassium phosphate buffer (50 mM), MgCl2 (3 mM), EDTA (1 mM), an NADPH-generating system [always the mixture of the following: NADP (1 mM), glucose-6-phosphate (5 mM), glucose-6-phosphate dehydrogenase (1 Unit/mL)], and marker substrate at the final concentrations indicated. Pooled human liver microsomes (from sixteen individuals) were used as the source of enzymes (Section 1.3.1.2). The concentrations of marker substrates were based on the Km and Vmax data that were determined previously (data not shown).
(§2) Due to the possibility that boceprevir may bind to microsomal protein or lipids, an attempt was made to design these experiments such that, in as many cases as possible, the microsomal protein, incubation time, and phosphate buffer concentration were 0.1 mg/mL, 5 minutes and 50 mM, respectively, for assays performed with human liver microsomes (Table 1). […] Since it is not imperative that the concentration of marker substrates be exactly equal to Km, the marker substrate concentrations were rounded up or down, as applicable, to simplify the experimental design (data not shown). […] Thus, the final incubation concentration of phenacetin was 60 μM (Table 1).
(§3) The ability of boceprevir to inhibit the CYP enzymes listed in Section 1.2.1 was investigated with a pool of sixteen individual human liver microsomal samples at the concentrations indicated in Table 1. Aliquots of the stock and/or working solutions of boceprevir were manually added to buffer mixtures containing the components described in Section 1.3.21. Incubation mixtures were prepared in bulk to obviate the need for directly pipetting very small volumes (i.e., 1 μL or less). Incubations containing no boceprevir (0 μM) contained the vehicle used to dissolve boceprevir (i.e., 1% methanol).
(§4) The Tecan liquid handling system conducted all remaining incubation steps, with the exception of the centrifugation. Aliquots of the buffer mixtures were then automatically added to 96-well plates at the appropriate locations in duplicate. Aliquots of a substrate working solution were added to the 96-well plates, prior to initiating reactions, to give the final concentrations indicated in Table 1. Reactions were initiated with the addition of an aliquot of an NADPH-generating system. Reactions were automatically terminated at approximately 5 minutes, by the addition of the appropriate internal standard (Table 5) and stop reagent; acetonitrile. Precipitated protein was removed by centrifugation (920 g for 10 minutes at 10° C.). Standards and quality control samples were similarly prepared with the addition of authentic metabolite standards.
To examine its ability to act as a time-dependent inhibitor, boceprevir (at the same concentrations used to evaluate direct inhibition) was pre-incubated at 37±1° C., in duplicate, with human liver microsomes and an NADPH-generating system for approximately 30 minutes. This pre-incubation allowed for the generation of intermediates that could inhibit human CYP enzymes. The pre-incubations were initiated with the addition of an aliquot of an NADPH-generating system. […]

For another data set, the target named is T2, CYP2C19 (Homo sapiens, UniProt P33261).
T2 construct: Pooled human liver microsomes (from sixteen individuals) were used as the source of enzymes; tissue XenoTech, LLC; host or cells: human liver microsomes, pool of sixteen donors
T2 sequence (P33261 whole entry): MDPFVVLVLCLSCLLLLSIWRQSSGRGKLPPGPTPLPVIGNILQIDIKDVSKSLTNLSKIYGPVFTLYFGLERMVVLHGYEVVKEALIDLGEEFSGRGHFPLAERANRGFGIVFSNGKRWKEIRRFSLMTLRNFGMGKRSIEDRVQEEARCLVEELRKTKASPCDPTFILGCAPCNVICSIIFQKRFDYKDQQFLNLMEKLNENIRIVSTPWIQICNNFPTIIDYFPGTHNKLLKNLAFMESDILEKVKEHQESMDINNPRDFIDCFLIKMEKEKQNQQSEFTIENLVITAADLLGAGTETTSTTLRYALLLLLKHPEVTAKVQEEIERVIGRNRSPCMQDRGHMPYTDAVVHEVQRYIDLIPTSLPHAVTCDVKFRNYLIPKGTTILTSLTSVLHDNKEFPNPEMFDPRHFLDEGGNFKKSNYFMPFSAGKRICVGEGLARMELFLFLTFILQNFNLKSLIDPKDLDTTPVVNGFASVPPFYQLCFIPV
Description: CYP2C19 inhibition, S-mephenytoin 4′-hydroxylation in human liver microsomes. In kind it is in vitro ADME. The following applies: for Potential for Time-Dep. Inhibition: comparison with and without 30-minute pre-incubation; for inhibition at 5 min, 100 µM: human, pH 7.4, probe S-mephenytoin (4′-hydroxylation). Here is the method: as §1, §2, §3, §4
(§5) To examine its ability to act as a time-dependent inhibitor, boceprevir (at the same concentrations used to evaluate direct inhibition) was pre-incubated at 37±1° C., in duplicate, with human liver microsomes and an NADPH-generating system for approximately 30 minutes. This pre-incubation allowed for the generation of intermediates that could inhibit human CYP enzymes. The pre-incubations were initiated with the addition of an aliquot of an NADPH-generating system. […] Reactions were automatically terminated, at approximately 5 minutes, by the addition of the appropriate internal standard (Table 5) and stop reagent; acetonitrile. Precipitated protein was removed by centrifugation (920 g for 10 minutes at 10° C.). Incubations containing no boceprevir (0 μM) and incubations that contained boceprevir but were not pre-incubated, served as negative controls.

Data set [1] deals with CYP3A4/5. Description: CYP3A4/5 inhibition, midazolam 1′-hydroxylation in human liver microsomes (IC50 and Ki). In kind it is in vitro ADME. The following applies: for Potential for Time-Dep. Inhibition: comparison with and without 30-minute pre-incubation. Here is the method: as §1, §2, §3, §4, §5
In data set [2] the test system is CYP3A4/5. Description: NADPH dependence and effects of dilution of time-dependent inhibition of CYP3A4/5 (testosterone 6β-hydroxylation and midazolam 1′-hydroxylation). In kind it is in vitro ADME, human. The settings on record: 3 μM.
Data set [3] can be described thus: Qualitative visual solubility in the test system. The following applies: 10 μL of 10 mM methanol stock in 990 μL buffer with human liver microsomes, pH 7.4. In kind it is physicochemical. Here is the method:
A stock solution of boceprevir (target concentration of 10 mM) in methanol was prepared and solubility testing was conducted to qualitatively assess boceprevir solubility in the test system. An aliquot (10 μL) of the highest stock boceprevir solution (10 mM in methanol) was added to a 990-μL mixture (target pH 7.4) containing high purity water, potassium phosphate buffer (50 mM), MgCl2 (3 mM), EDTA (1 mM), and human liver microsomes (0.0125 and 0.1 mg/mL) at the final concentrations listed (for a total volume of 1000 μt). […] The stock solution (10 mM boceprevir for IC50 determinations), along with dilutions to working solutions (ranging from 0.01 to 3.0 mM boceprevir) were prepared fresh each day experiments were performed. […] These solutions were prepared fresh on the day the Ki determination experiment was performed. Additionally, a stock concentration of 0.3 mM was used in the NADPH dependence/effects of dilution, as well as the MIC formation experiment.

Where [4] appears, read: direct inhibition, zero-minute pre-incubation, pooled human liver microsomes.
Where [5] appears, read: time-dependent inhibition, 30-minute pre-incubation.

T1 sequence (P11712 whole entry): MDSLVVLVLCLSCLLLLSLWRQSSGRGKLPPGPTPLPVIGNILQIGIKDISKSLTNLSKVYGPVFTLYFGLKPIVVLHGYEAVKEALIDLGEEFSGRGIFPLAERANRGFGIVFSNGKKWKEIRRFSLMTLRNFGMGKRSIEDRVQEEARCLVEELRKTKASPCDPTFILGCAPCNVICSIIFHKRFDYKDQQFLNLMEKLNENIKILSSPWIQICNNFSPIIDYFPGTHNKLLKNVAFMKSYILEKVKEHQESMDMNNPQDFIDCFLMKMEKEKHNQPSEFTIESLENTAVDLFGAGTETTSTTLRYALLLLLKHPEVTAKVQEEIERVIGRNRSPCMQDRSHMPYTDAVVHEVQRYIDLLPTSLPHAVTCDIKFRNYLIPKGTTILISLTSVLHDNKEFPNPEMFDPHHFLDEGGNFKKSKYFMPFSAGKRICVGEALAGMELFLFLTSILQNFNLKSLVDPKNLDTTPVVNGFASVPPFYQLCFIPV

For the molecule `CC(C)(C)NC(=O)NC(C(=O)N1CC2C([C@H]1C(=O)NC(CC1CCC1)C(=O)C(N)=O)C2(C)C)C(C)(C)C` (stereo partly drawn) [Boceprevir, (1R,2S,5S)—N-[(2Ξ)-4-amino-1-cyclobutyl-3,4-dioxobutan-2-yl]-3-{(2S)-2-[(tert-butylcarbamoyl)amino]-3,3-dimethylbutanoyl}-6,6-dimethyl-3-azabicyclo[3.1.0]hexane-2-carboxamide], the “Potential for Time-Dep. Inhibition” value at CYP2C9 is listed as “little or no”; at CYP2C9 (listed as boceprevir) it was “no discernable time-dependent inhibition”; on CYP2C19 it was “little or no”; on CYP2C19 (listed as boceprevir) it was “no discernable time-dependent inhibition”; in the data set with CYP3A4/5 [1] it was “yes^c”; with CYP3A4/5 [1] (listed as boceprevir) it was “caused time-dependent inhibition”. Moreover, the half-maximal inhibitory concentration (IC50) at CYP2C9 (setting [4]), against CYP2C9 (setting [5]), against CYP2C19 (setting [4]) and against CYP2C19 (setting [5]) was over 100 µM each time. The inhibition at 5 min, 100 µM at CYP2C9 (human, pooled human liver microsomes, pH 7.4, probe diclofenac (4′-hydroxylation), direct inhibition, zero-minute pre-incubation, read-out: Max. Inhib. at 100 μM) stood at 3.6%; at CYP2C19 (pooled human liver microsomes, direct inhibition, zero-minute pre-incubation, read-out: Max. Inhib. at 100 μM) it was 25%; on CYP2C19 (pooled human liver microsomes, time-dependent inhibition, 30-minute pre-incubation, read-out: Maximum Inhibition at 100 μM), 14%; with CYP3A4/5 [1] (human, pooled human liver microsomes, pH 7.4, probe midazolam (1′-hydroxylation), direct inhibition, zero-minute pre-incubation, read-out: Max. Inhib. at 100 μM), 91%; with CYP3A4/5 [1] (human, pooled human liver microsomes, pH 7.4, probe midazolam (1′-hydroxylation), time-dependent inhibition, 30-minute pre-incubation, read-out: Maximum Inhibition at 100 μM) it was 99%. Also, the “Type of Inhibition” value is on record as “competitive; also recorded: competit” in the data set with CYP3A4/5 [1] (direct inhibition) and “competitive” in the data set on CYP3A4/5 [1] (direct inhibition, listed as boceprevir). In the data set on CYP3A4/5 [1] (human, pooled human liver microsomes, pH 7.4, probe midazolam (1′-hydroxylation), direct inhibition), this molecule came in with a Ki at 5 min of 7.7 µM. Further, the IC50 at 5 min came out at 11 µM in the data set on CYP3A4/5 [1] (human, pooled human liver microsomes, pH 7.4, probe midazolam (1′-hydroxylation), direct inhibition, zero-minute pre-incubation) and 0.97 µM in the data set with CYP3A4/5 [1] (human, pooled human liver microsomes, pH 7.4, probe midazolam (1′-hydroxylation), time-dependent inhibition, 30-minute pre-incubation). In the data set with CYP3A4/5 [2] (25-fold dilution after pre-incubation), the “Resistance to dilution of the increase in inhibition upon pre-incubation” value is listed as “did not appear to be resistant to dilution”. The “NADPH dependence of the increase in inhibition upon pre-incubation” value with CYP3A4/5 [2] (pre-incubation 0, 15 and 30 minutes with and without NADPH) was “did require NADPH”. Further, the “Solubility in the test system (qualitative visual comparison)” value in data set [3] is “soluble”.
